From patent US4263437A, “Acetic acid derivatives of 5,6-dihydrobenzo[b]pyrido[3,2-f]thiepine and oxepine” (Nippon Chemiphar Co., Ltd., priority 1978, dated 1981)

Tested on: carrageenan-induced edema in the hind paws
Test: Carrageenan-induced hind paw edema in rats (oral administration)
Type: in vivo, Male Wistar rats
Settings: Rattus norvegicus, 1 hour before 0.1 ml of 1% carrageenan, 3 hours
Procedure: Male Wistar rats each weighing about 100 g, one group consisting of 5 to 7 animals, were orally given the compounds according to this invention, and edema was induced in the hind paws by subcutaneous injections of 0.1 ml of 1% carrageenan one hour after the administration of the test compounds. Thereafter, the volumes of the hind paws were measured by a volume differential meter.

## O=C(O)Cc1ccc2c(c1)C(=O)Cc1ccccc1S2 [Compound 1, (10,11-Dihydro-11-oxo dibenzo[b,f]thiepin-2-yl)-acetic acid]
  inhibition in vivo at 5 mg/kg: 58%

## NC(=O)Cc1ccc2c(c1)C(=O)Cc1ccccc1S2 [Compound 2, (10,11-Dihydro-11-oxo dibenzo[b,f]thiepin-2-yl)-acetamide]
  inhibition in vivo at 5 mg/kg: 42.1%

## CCOC(=O)Cc1ccc2c(c1)C(=O)Cc1ccccc1S2 [Compound 3, Ethyl(10,11-dihydro-11-oxodibenzo[b,f]thiepin-2-yl)-acetate]
  inhibition in vivo at 5 mg/kg: 50.6%

## O=C(O)Cc1ccc2c(c1)CCc1ccccc1S2 [Compound 4, (10,11-Dihydro dibenzo[b,f]thiepin-2-yl)-acetic acid]
  inhibition in vivo at 5 mg/kg: 45.3%

## CCOC(=O)Cc1ccc2c(c1)CCc1ccccc1S2 [Compound 5, Ethyl(10,11-dihydrodibenzo[b,f]thiepin-2-yl)-acetate]
  inhibition in vivo at 5 mg/kg: 46%

## O=C(O)Cc1ccc2c(c1)C(=O)Cc1ccccc1O2 [Compound 6, (10,11-dihydro-11-oxo dibenzo[b,f]oxepin-2-yl)-acetic acid]
  inhibition in vivo at 5 mg/kg: 44.1%

## CCOC(=O)Cc1ccc2c(c1)C(=O)Cc1ccccc1O2 [Compound 7, Ethyl(10,11-dihydro-11-oxodibenzo[b,f]oxepin-2-yl)-acetate]
  inhibition in vivo at 5 mg/kg: 47.9%

## O=C(O)Cc1ccc2c(c1)CCc1ccccc1O2 [Compound 8, (10,11-Dihydro dibenzo[b,f]oxepin-2-yl)-acetic acid]
  inhibition in vivo at 5 mg/kg: 61.4%

## CCOC(=O)Cc1ccc2c(c1)CCc1ccccc1O2 [Compound 9, Ethyl (10,11-dihydro dibenzo[b,f]oxepin-2-yl)-acetate]
  inhibition in vivo at 5 mg/kg: 63.4%

## COC(=O)Cc1ccc2c(c1)C(=O)Cc1cccnc1S2 [Compound 10, Methyl (5,6-dihydro-6-oxo benzo[b]pyrido[3,2-f]thiepin-8-yl)-acetate]
  inhibition in vivo at 5 mg/kg: 38.4%

## O=C(O)Cc1ccc2c(c1)CCc1cccnc1S2 [Compound 11, (5,6-Dihydro benzo[b]pyrido[3,2-f]thiepin-8-yl)-acetic acid]
  inhibition in vivo at 5 mg/kg: 59.7%

## NC(=O)Cc1ccc2c(c1)CCc1cccnc1S2 [Compound 12, (5,6-Dihydro benzo[b]pyrido[3,2-f]thiepin-8yl)-acetamide]
  inhibition in vivo at 5 mg/kg: 43.9%

## CCOC(=O)Cc1ccc2c(c1)CCc1cccnc1S2 [Compound 13, Ethyl(5,6-dihydrobenzo[b]pyrido[3,2-f]thiepin-8-yl)-acetate]
  inhibition in vivo at 5 mg/kg: 64.6%

## O=C(O)Cc1ccc2c(c1)CCc1cccnc1O2 [Compound 14, (5,6-Dihydro benzo[b]pyrido[3,2-f]oxepin-8-yl)-acetic acid]
  inhibition in vivo at 5 mg/kg: 50.6%

## CCOC(=O)Cc1ccc2c(c1)CCc1cccnc1O2 [Compound 15, Ethyl(5,6-dihydrobenzo[b]pyrido[3,2-f]oxepin-8-yl)-acetate]
  inhibition in vivo at 5 mg/kg: 41.6%

## O=C(O)c1ccccc1Nc1cccc(C(F)(F)F)c1 [Flufenamic acid, reference compound]
  inhibition in vivo at 5 mg/kg: 29.3%

## CCCCC1C(=O)N(c2ccccc2)N(c2ccccc2)C1=O [Phenylbutazone, reference compound]
  inhibition in vivo at 5 mg/kg: 20.9%
